{
  "source": "patent US20200270309A1",
  "about": "“MALEIMIDE GROUP-MODIFIED ANGIOGENESIS INHIBITOR HM-1 AND USE THEREOF” (NANJING ANJI BIOLOGICAL TECHNOLOGY CO., LTD, priority 2017, published 2020)",
  "key": {"[1]": {"system": "adjuvant arthritis", "test": "Rat adjuvant arthritis (AA) animal model", "assay_type": "in vivo, SD rats", "conditions": "4.0 mg/kg; for Clinical score: intravenous in the tail once every five days from day 10, four paws scored 0-4, max 16, mean±SD; for Joint swelling degree / Left and right paw swelling degree: intravenous in the tail once every five days from day 10, mean±SD"}, "[2]": {"system": "HUVECs", "test": "Transwell migration inhibition on HUVECs", "assay_type": "cell-based, human", "conditions": "for Inhibition rate (%): HUVEC migration vs blank control; for Cell migration number (Mean ± SD): HUVECs, transwell, 24 h"}, "[3]": {"system": "collagen-induced arthritis", "test": "Mouse collagen-induced arthritis (CIA) animal model", "assay_type": "in vivo", "conditions": "DBA/1 mice CIA model, dose 4.0 mg/kg, subcutaneous from day 30, n=10; for Clinical score: highest score 16"}, "[4]": {"system": "corneal neovascularization", "test": "Corneal neovascularization induced by alkali burn in BALB/c mice", "assay_type": "in vivo", "design": "Inhibition rate (corneal neovascularization): concentration or dose not given beside the values", "conditions": "day 14 after alkali burn, vitreous injection once a day for 1 week"}, "[5]": {"system": "retinal vascular endothelial nuclei", "test": "Neovascularization in a rat model of premature retinopathy", "assay_type": "in vivo, rats", "conditions": "dose 0.05 μM in the vitreous chamber from day 7 of modeling for one week; counted on day 14; oxygen-induced neonatal rats", "procedure,_shortened": "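Newborn rats kept 7 d in chamber alternating 80% and 10% O2 every 24 h (23 °C), then room air. Intravitreal injection of test agents on day 7, saline for model and control; eyes taken day 14, HE-stained 4 μm sections. Endothelial nuclei breaching retinal inner limiting membrane counted, averaged per section per eye (10 sections).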"}, "[6]": {"system": "splenic lymphocytes", "test": "Proliferation of splenic lymphocytes in mice (ConA, MTT)", "assay_type": "cell-based", "conditions": "ConA-stimulated mouse splenic lymphocytes, 48 h", "procedure,_shortened": "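Proliferation read as OD 570 nm after 4 h MTT and DMSO solubilisation, five parallel wells. Before that, ConA-stimulated splenic lymphocytes from mice, 5×10^6 cells/mL in 10% calf serum RPMI 1640, were cultured 48 h at 37° C. with different peptide concentrations; controls were blank, ConA alone and dexamethasone.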"}, "[7]": {"system": "IL-1β production by mouse peritoneal macrophages", "test": "IL-1β production by mouse peritoneal macrophages (ELISA)", "assay_type": "cell-based", "conditions": "for Inhibition rate: IL-1β production, vs model group; for IL-1β: mouse peritoneal macrophages, 48 h, ELISA", "procedure,_shortened": "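Peptides tested at three concentration levels on adherent peritoneal macrophages harvested from mice 3 days after i.p. 6% starch broth, plated at 2×10^6 cells/mL. After 48 h culture with Dex as reference, IL-1β in supernatants was quantified.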"}},
  "note": "Peptide text beside a SMILES is read from it. * marks the point of attachment. X71 = O=C1C=CC(=O)N1c1cccc(CCCCCC(=O)*)c1; X79 = O=C1C=CC(=O)N1c1cccc(CCC(=O)*)c1",
  "data": [
    {"smiles": "C[C@H](NC(=O)CNC(=O)[C@H](CCCNC(=N)N)NC(=O)CCc1cccc(N2C(=O)C=CC2=O)c1)C(=O)N[C@@H](CC(=O)O)C(=O)N[C@@H](CCCNC(=N)N)C(=O)N[C@@H](C)C(=O)NCC(=O)NCC(=O)NCC(=O)NCC(=O)N[C@@H](CCCNC(=N)N)C(=O)NCC(=O)N[C@@H](CC(=O)O)C(=O)O", "note": "[X26] (X79-RGADRAGGGGRGD-OH)", "values": [
      {"measurement": "Clinical score", "setting": "[1]", "value": "5.65 ± 1.07"},
      {"measurement": "Joint swelling degree", "setting": "[1]", "value": "0.74 ± 0.18", "unit": "mm"},
      {"measurement": "Left and right paw swelling degree", "setting": "[1]", "value": "3.81 ± 0.59", "unit": "mm"},
      {"measurement": "Inhibition rate (%)", "setting": "[2]; dose 0.05 μM", "value": 46.81, "unit": "%"},
      {"measurement": "Inhibition rate (%)", "setting": "[2]; dose 0.1 μM", "value": 48.98, "unit": "%"},
      {"measurement": "Inhibition rate (%)", "setting": "[2]; dose 0.2 μM", "value": 53.86, "unit": "%"},
      {"measurement": "Cell migration number (Mean ± SD)", "setting": "[2]; dose 0.05 μM", "value": "570.08 ± 49.26"},
      {"measurement": "Cell migration number (Mean ± SD)", "setting": "[2]; dose 0.1 μM", "value": "546.86 ± 60.43"},
      {"measurement": "Cell migration number (Mean ± SD)", "setting": "[2]; dose 0.2 μM", "value": "494.57 ± 48.88"},
      {"measurement": "Joint swelling degree (mm)", "setting": "[3]", "value": "0.71 ± 0.14", "unit": "mm"},
      {"measurement": "Left and right paw swelling degree (mm)", "setting": "[3]", "value": "0.84 ± 0.12", "unit": "mm"},
      {"measurement": "Clinical score", "setting": "[3]", "value": "9.07 ± 1.32"},
      {"measurement": "Inhibition rate (corneal neovascularization)", "setting": "[4]", "value": 44.32, "unit": "%"},
      {"measurement": "MVD (corneal microvessel density)", "setting": "[4]", "value": "37.44 ± 4.646"},
      {"measurement": "Nuclei count (retinal vascular endothelial nuclei, average per section per eyeball)", "setting": "[5]", "value": "8.343 ± 2.131"},
      {"measurement": "A570 nm/A630 nm", "setting": "[6]; polypeptide dose 0.05 μM", "value": "0.5714 ± 0.1002"},
      {"measurement": "Inhibition rate (%)", "setting": "[6]; polypeptide dose 0.05 μM", "value": 15.46, "unit": "%"},
      {"measurement": "A570 nm/A630 nm", "setting": "[6]; polypeptide dose 0.1 μM", "value": "0.5365 ± 0.0543"},
      {"measurement": "Inhibition rate (%)", "setting": "[6]; polypeptide dose 0.1 μM", "value": 20.57, "unit": "%"},
      {"measurement": "A570 nm/A630 nm", "setting": "[6]; polypeptide dose 0.2 μM", "value": "0.4991 ± 0.0743"},
      {"measurement": "Inhibition rate (%)", "setting": "[6]; polypeptide dose 0.2 μM", "value": 26.10, "unit": "%"},
      {"measurement": "Inhibition rate", "setting": "[7]; dose 0.05 μM", "value": 18.26, "unit": "%"},
      {"measurement": "IL-1β", "setting": "[7]; dose 0.05 μM", "value": "769.33 ± 19.82", "unit": "pg/mL"},
      {"measurement": "Inhibition rate", "setting": "[7]; dose 0.1 μM", "value": 21.99, "unit": "%"},
      {"measurement": "IL-1β", "setting": "[7]; dose 0.1 μM", "value": "734.20 ± 13.89", "unit": "pg/mL"},
      {"measurement": "Inhibition rate", "setting": "[7]; dose 0.2 μM", "value": 29.51, "unit": "%"},
      {"measurement": "IL-1β", "setting": "[7]; dose 0.2 μM", "value": "663.38 ± 11.96", "unit": "pg/mL"}
    ]},
    {"smiles": "C[C@H](NC(=O)CNC(=O)[C@H](CCCNC(=N)N)NC(=O)CCCCCc1cccc(N2C(=O)C=CC2=O)c1)C(=O)N[C@@H](CC(=O)O)C(=O)N[C@@H](CCCNC(=N)N)C(=O)N[C@@H](C)C(=O)NCC(=O)NCC(=O)NCC(=O)NCC(=O)N[C@@H](CCCNC(=N)N)C(=O)NCC(=O)N[C@@H](CC(=O)O)C(=O)O", "note": "[X29] (X71-RGADRAGGGGRGD-OH)", "values": [
      {"measurement": "Clinical score", "setting": "[1]", "value": "5.72 ± 1.06"},
      {"measurement": "Joint swelling degree", "setting": "[1]", "value": "0.84 ± 0.16", "unit": "mm"},
      {"measurement": "Left and right paw swelling degree", "setting": "[1]", "value": "3.72 ± 0.80", "unit": "mm"},
      {"measurement": "Inhibition rate (%)", "setting": "[2]; dose 0.05 μM", "value": 46.37, "unit": "%"},
      {"measurement": "Inhibition rate (%)", "setting": "[2]; dose 0.1 μM", "value": 50.43, "unit": "%"},
      {"measurement": "Inhibition rate (%)", "setting": "[2]; dose 0.2 μM", "value": 53.84, "unit": "%"},
      {"measurement": "Cell migration number (Mean ± SD)", "setting": "[2]; dose 0.05 μM", "value": "574.88 ± 55.42"},
      {"measurement": "Cell migration number (Mean ± SD)", "setting": "[2]; dose 0.1 μM", "value": "531.34 ± 47.59"},
      {"measurement": "Cell migration number (Mean ± SD)", "setting": "[2]; dose 0.2 μM", "value": "494.73 ± 56.78"},
      {"measurement": "Joint swelling degree (mm)", "setting": "[3]", "value": "0.81 ± 0.15", "unit": "mm"},
      {"measurement": "Left and right paw swelling degree (mm)", "setting": "[3]", "value": "0.71 ± 0.13", "unit": "mm"},
      {"measurement": "Clinical score", "setting": "[3]", "value": "8.98 ± 1.44"},
      {"measurement": "Inhibition rate (corneal neovascularization)", "setting": "[4]", "value": 54.98, "unit": "%"},
      {"measurement": "MVD (corneal microvessel density)", "setting": "[4]", "value": "30.27 ± 4.918"},
      {"measurement": "Nuclei count (retinal vascular endothelial nuclei, average per section per eyeball)", "setting": "[5]", "value": "9.533 ± 2.225"},
      {"measurement": "A570 nm/A630 nm", "setting": "[6]; polypeptide dose 0.05 μM", "value": "0.5595 ± 0.0932"},
      {"measurement": "Inhibition rate (%)", "setting": "[6]; polypeptide dose 0.05 μM", "value": 17.16, "unit": "%"},
      {"measurement": "A570 nm/A630 nm", "setting": "[6]; polypeptide dose 0.1 μM", "value": "0.5284 ± 0.0661"},
      {"measurement": "Inhibition rate (%)", "setting": "[6]; polypeptide dose 0.1 μM", "value": 21.76, "unit": "%"},
      {"measurement": "A570 nm/A630 nm", "setting": "[6]; polypeptide dose 0.2 μM", "value": "0.5094 ± 0.1191"},
      {"measurement": "Inhibition rate (%)", "setting": "[6]; polypeptide dose 0.2 μM", "value": 24.58, "unit": "%"},
      {"measurement": "Inhibition rate", "setting": "[7]; dose 0.05 μM", "value": 16.20, "unit": "%"},
      {"measurement": "IL-1β", "setting": "[7]; dose 0.05 μM", "value": "788.74 ± 15.39", "unit": "pg/mL"},
      {"measurement": "Inhibition rate", "setting": "[7]; dose 0.1 μM", "value": 21.75, "unit": "%"},
      {"measurement": "IL-1β", "setting": "[7]; dose 0.1 μM", "value": "736.46 ± 14.72", "unit": "pg/mL"},
      {"measurement": "Inhibition rate", "setting": "[7]; dose 0.2 μM", "value": 40.73, "unit": "%"},
      {"measurement": "IL-1β", "setting": "[7]; dose 0.2 μM", "value": "557.81 ± 12.11", "unit": "pg/mL"}
    ]}
  ]
}
